Measured values taken from patent US9585380B2, “SSAT mRNA translation repression and activation” (TEMPLE UNIVERSITY—Of The Commonwealth System of Higher …, priority 2011, dated 2017).

Legend:
[1] = tested on: SSAT translation; experiment: Reporter system: 5′ UTR lacking uORFs + SSAT coding sequence-luciferase chimeric construct in HEK293T cells; format: cell-based, human; conditions: wild-type SSAT-luciferase construct, luciferase 16 hours after addition, compared to untreated
Protocol: A chimeric construct (FIG. 15A) comprising a fragment of the 5′ UTR of SSAT lacking the uORF's (see FIG. 7), the SSAT coding sequence (see FIG. 8B), and the luciferase coding sequence was prepared. The SSAT coding sequence is linked in-frame to the luciferase coding sequence. The construct was prepared using appropriate primers and template nucleic acid, and conventional PCR methods. The construct was cloned into pLEX-MCS. To evaluate the effect of small molecules on translation of the chimeric construct, the chimeric construct was transiently transfected into HEK293T cells. The small molecule to be tested was added 24 hours after transfection of the vector. Luciferase activity was evaluated 16 hours after the addition of the small molecule using the ONE-Glo™ Luciferase Assay System (Promega, Madison, Wis.). The luminescence intensity was determined using a GloMax® luminometer (Promega).
In view of the discovery of the contribution of uORF's on translational repression of SSAT mRNA, a reporter system was developed to detect pharmacophores that can modulate SSAT translation. The reporter system is a chimeric construct comprising a 5′ UTR lacking the uORF's and the SSAT coding sequence linked in-frame to the luciferase coding sequence. (FIG. 15A). The 5′ UTR comprises 66 nucleotides of the native 5′UTR immediately upstream of the starting AUG codon.
Release of translational repression of the chimeric construct was tested in the presence of several small molecules. Release of translational repression was assessed by detection of luciferase activity. The small molecules tested were: DENSPM and three uncharacterized polyamine analogs designated polyamine analog 1; polyamine analog 2; and polyamine analog 3. Cisplatin and 5-FU were tested as negative controls.

[2] = tested on: SSAT translation; experiment: DENSPM dose response curve with mutant 6 chimeric construct; format: cell-based, human; conditions: mutant 6 construct, DENSPM 0.08 μM to 40 μM, HEK293T
Protocol: The chimeric construct to be tested was transiently transfected into HEK293T cells. Twenty-four hours after transfection of the vector, DENSPM was added to the desired final concentration (ranged from 0.08 micromolar to 40 micromolar). Luciferase activity was evaluated 16 hours after the addition of DENSPM using the ONE-Glo™ Luciferase Assay System. The luminescence intensity was determined using a GloMax® luminometer (Promega). The experiment was run in triplicates to obtain error bars and evaluate reproducibility.
A dose response experiment was performed using the mutant 6 chimeric construct. Specifically, the stimulation of mutant 6 translation by ten different concentrations of DENSPM was assayed. The DENSPM concentrations ranged from 0.08 micromolar (μM) to 40 μM. The dose response curve is depicted in FIG. 20.

[3] = tested on: SSAT translation
[4] = tested on: nucleolin; conditions: HEK293T exposed to 2 mM spermine for 12 hours versus controls
Protocol: In addition, a sample of RNA-interacting proteins obtained from a Sepharose-streptomycin-chimeric RNA column described above was subjected to the same 2DE separation. The sample was initially concentrated to 30 μL using a Nanosep 3000 (Pall Corp) and dialyzed with 0.1×PBS for 12 h using a Slide-A-Lyzer 7K mini unit (Pierce Biotech). After separation by 2DE, the proteins were transferred to a nitrocellulose membrane using a Mini Trans Blot System (Biorad) and were Western blotted using anti-nucleolin monoclonal antibody.

SMILES	Release of translational repression of the chimeric construct (luciferase activity) [1]	Dose dependency of stimulation of translation of SSAT mRNA having CGC encoding Arg142 [2]	SSAT expression (Western blot) ([3]; constructs with or without uORFs, presence of spermine)	Repression of eGFP expression by the SSAT stem loop (Loop eGFP, Western blot) ([3]; exogenous spermine, HEK293T)	55 KDa nucleolin isoform (2D-PAGE Western blot) [4]
CCNCCCNCCCNCCCNCC [DENSPM, N^1-N^11 diethylnorspermine]	relieved	dose dependency over at least two orders of magnitude	–	–	–
NCCCNCCCCNCCCN [spermine]	–	–	stimulated expression	partially reversed	absent
